# According to US20140309229A1, “METHODS FOR SELECTING AND TREATING CANCER IN PATIENTS WITH IGF-1R/IR INHIBITORS” (priority 2011, published 2014):
# Columns and labels:
# GP5D = test: MTS proliferation assay; type: cell-based, human
# Protocol: (§1) Cell lines and in vitro cytotoxicity assay. Cells were maintained at 37° C. under standard cell culture conditions. Cells were plated at an optimized density for each cell line per well in 96-well microtiter FALCON® plates, incubated overnight, and then exposed to a serial dilution of drug. […] The results were expressed as an IC50, which is the drug concentration required to inhibit cell proliferation to 50% of that of untreated control cells. The mean IC50 and standard deviation (SD) from multiple tests for each cell line were calculated.
# (§2) In vitro Cellular Proliferation Assays.
# HT55 = test: MTS proliferation assay; type: cell-based, human
# Protocol: as §1, §2
# SW620 = test: MTS proliferation assay; type: cell-based, human
# Protocol: as §1, §2
# LS174T = test: MTS proliferation assay; type: cell-based, human
# Protocol: as §1, §2
# RKO = test: MTS proliferation assay; type: cell-based, human
# Protocol: as §1, §2
# SW48 = test: MTS proliferation assay; type: cell-based, human
# Protocol: as §1, §2
# HCT-15 = test: MTS proliferation assay; type: cell-based, human
# Protocol: as §1, §2
# MIP = test: MTS proliferation assay; type: cell-based, human
# Protocol: as §1, §2
# SW837 = test: MTS proliferation assay; type: cell-based, human
# Protocol: as §1, §2
# CaR-1 = test: MTS proliferation assay; type: cell-based, human
# Protocol: as §1, §2
# GP2D = test: MTS proliferation assay; type: cell-based, human
# Protocol: as §1, §2
# LS-123 = test: MTS proliferation assay; type: cell-based, human
# Protocol: as §1, §2
# DIFI = test: MTS proliferation assay; type: cell-based, human
# Protocol: as §1, §2
# HCC2998 = test: MTS proliferation assay; type: cell-based, human
# Protocol: as §1, §2
# SNU175 = test: MTS proliferation assay; type: cell-based, human
# Protocol: as §1, §2
# CX-1 = test: MTS proliferation assay; type: cell-based, human
# Protocol: as §1, §2
# SNU-407 = test: MTS proliferation assay; type: cell-based, human
# Protocol: as §1, §2
# LS-411N = test: MTS proliferation assay; type: cell-based, human
# Protocol: as §1, §2
# HCC-56 = test: MTS proliferation assay; type: cell-based, human
# Protocol: as §1, §2
# COLO-320-HSR = test: MTS proliferation assay; type: cell-based, human
# Protocol: as §1, §2
# COLO-678 = test: MTS proliferation assay; type: cell-based, human
# Protocol: as §1, §2
# CACO-2 = test: MTS proliferation assay; type: cell-based, human
# Protocol: as §1, §2
# SK-CO-1 = test: MTS proliferation assay; type: cell-based, human; conditions: for IC50: Homo sapiens
# Protocol: as §1, §2
# SW480 = test: MTS proliferation assay; type: cell-based, human
# Protocol: as §1, §2
# SW403 = test: MTS proliferation assay; type: cell-based, human
# Protocol: as §1, §2
# DLD-1 = test: MTS proliferation assay; type: cell-based, human; conditions: for IC50: Homo sapiens
# Protocol: as §1, §2
# SNU-C1 = test: MTS proliferation assay; type: cell-based, human
# Protocol: as §1, §2
# CCD18CO = test: MTS proliferation assay; type: cell-based, human
# Protocol: as §1, §2
# COLO741 = test: MTS proliferation assay; type: cell-based, human
# Protocol: as §1, §2
# [1] = patients at minimum efficacious dose, phase I solid tumor trials; cited from earlier work
# [2] = preliminary panel of 45 CRC cell lines
compound,measurement,setting,value
"C[C@@]1(C(=O)Nc2ccc(F)nc2)CCCN1c1nc(Nc2cc(C3CC3)n[nH]2)c2cccn2n1 [BMS-754807, (2S)-1-(4-((5-cyclopropyl-1H-pyrazol-3-yl)amino)pyrrolo[2,1-f][1,2,4]triazin-2-yl)-N-(6-fluoro-3-pyridinyl)-2-methyl-2-pyrrolidinecarboxamide]",Sensitivity Classes,GP5D; GP5D,R (“R” refers Resistant)
same,IC50,"GP5D; Homo sapiens, GP5d, 72 h",252 nM
same,Sensitivity Classes,HT55; HT55,S (“S” refers Sensitive)
same,IC50,"HT55; Homo sapiens, HT55, 72 h",3 nM
same,IC50,"SW620; Homo sapiens, SW-620, 72 h",1830 nM
same,Sensitivity Classes,SW620; SW620,R (“R” refers Resistant)
same,Sensitivity to BMS-754807,"SW620; SW620, preliminary panel of 45 CRC cell lines",Resistant (resistant cell lines had IC50 values of >50 nmol/L)
same,Sensitivity Classes,LS174T,R (“R” refers Resistant)
same,IC50,"LS174T; Homo sapiens, 72 h",358 nM
same,Sensitivity to BMS-754807,LS174T; [2],Intermediate (remaining 30 cell lines classified as Intermediate or resistant)
same,Sensitivity Classes,RKO,R (“R” refers Resistant)
same,IC50,"RKO; Homo sapiens, 72 h",857 nM
same,Sensitivity to BMS-754807,RKO; [2],Resistant (resistant cell lines had IC50 values of >50 nmol/L)
same,IC50,"SW48; Homo sapiens, SW48, 72 h",13 nM
same,Sensitivity Classes,SW48; SW48,S (“S” refers Sensitive)
same,Sensitivity to BMS-754807,"SW48; SW48, preliminary panel of 45 CRC cell lines",Sensitive (a sensitive cell line was classified as one with an IC50 of ≦50 nmol/L)
same,Sensitivity to BMS-754807,"HCT-15; HCT15, preliminary panel of 45 CRC cell lines",Resistant (resistant cell lines had IC50 values of >50 nmol/L)
same,Sensitivity Classes,HCT-15; HCT-15,R (“R” refers Resistant)
same,IC50,"HCT-15; Homo sapiens, HCT-15, 72 h",757 nM
same,Sensitivity Classes,MIP,R (“R” refers Resistant)
same,IC50,"MIP; Homo sapiens, 72 hrs",4.36 µM
same,IC50,"SW837; Homo sapiens, SW837, 72 h",1890 nM
same,Sensitivity Classes,SW837; SW837,R (“R” refers Resistant)
same,Sensitivity to BMS-754807,"SW837; SW837, preliminary panel of 45 CRC cell lines",Resistant (resistant cell lines had IC50 values of >50 nmol/L)
same,Sensitivity Classes,CaR-1; CaR-1,R (“R” refers Resistant)
same,IC50,"CaR-1; Homo sapiens, CaR-1, 72 h",375 nM
same,Sensitivity Classes,GP2D; GP2D,R (“R” refers Resistant)
same,IC50,"GP2D; Homo sapiens, GP2d, 72 h",261 nM
same,IC50,"LS-123; Homo sapiens, LS-123, 72 h",4.47 µM
same,Sensitivity to BMS-754807,"LS-123; LS123, preliminary panel of 45 CRC cell lines",Resistant (resistant cell lines had IC50 values of >50 nmol/L)
same,Sensitivity Classes,LS-123; LS-123,R (“R” refers Resistant)
same,Sensitivity Classes,DIFI; DIFI,S (“S” refers Sensitive)
same,Sensitivity to BMS-754807,"DIFI; DIFI, preliminary panel of 45 CRC cell lines",Sensitive (a sensitive cell line was classified as one with an IC50 of ≦50 nmol/L)
same,IC50,"DIFI; Homo sapiens, DiFi, 72 h",12 nM
same,Sensitivity Classes,HCC2998; HCC2998,R (“R” refers Resistant)
same,IC50,"HCC2998; Homo sapiens, HCC 2998, 72 h",380 nM
same,IC50,"SNU175; Homo sapiens, 72 h",3 nM
same,Sensitivity Classes,SNU175; SNU175,S (“S” refers Sensitive)
same,Sensitivity Classes,CX-1; CX-1,R (“R” refers Resistant)
same,Sensitivity to BMS-754807,"CX-1; CX-1, preliminary panel of 45 CRC cell lines",Intermediate (remaining 30 cell lines classified as Intermediate or resistant)
same,IC50,"CX-1; Homo sapiens, CX-1, 72 h",194 nM
same,IC50,"SNU-407; Homo sapiens, SNU-407, 72 h",13 nM
same,Sensitivity Classes,SNU-407; SNU-407,S (“S” refers Sensitive)
same,IC50,"LS-411N; Homo sapiens, LS-411N, 72 h",99 nM
same,Sensitivity to BMS-754807,"LS-411N; LS411N, preliminary panel of 45 CRC cell lines",Intermediate (remaining 30 cell lines classified as Intermediate or resistant)
same,Sensitivity Classes,LS-411N; LS-411N,R (“R” refers Resistant)
same,Sensitivity Classes,HCC-56; HCC-56,S (“S” refers Sensitive)
same,IC50,"HCC-56; Homo sapiens, 72 h",5 nM
same,Sensitivity to BMS-754807,"COLO-320-HSR; COLO320HSR, preliminary panel of 45 CRC cell lines",Sensitive (a sensitive cell line was classified as one with an IC50 of ≦50 nmol/L)
same,Sensitivity Classes,COLO-320-HSR; COLO-320-HSR,S (“S” refers Sensitive)
same,IC50,"COLO-320-HSR; Homo sapiens, COLO-320-HSR, 72 h",35 nM
same,Sensitivity Classes,COLO-678; COLO-678,R (“R” refers Resistant)
same,IC50,"COLO-678; Homo sapiens, COLO-678, 72 h",192 nM
same,Sensitivity Classes,CACO-2; CACO-2,R (“R” refers Resistant)
same,Sensitivity to BMS-754807,"CACO-2; CACO-2, preliminary panel of 45 CRC cell lines",Resistant (resistant cell lines had IC50 values of >50 nmol/L)
same,IC50,"CACO-2; Homo sapiens, Caco-2, 72 h",5.5 µM
same,IC50,SK-CO-1; SK-CO-1,3 nM
same,IC50,"SK-CO-1; SK-CO-1, 72 h",3 nM
same,Sensitivity Classes,SK-CO-1; SK-CO-1,S (“S” refers Sensitive)
same,Sensitivity to BMS-754807,"SK-CO-1; SK-CO-1, preliminary panel of 45 CRC cell lines",Sensitive (a sensitive cell line was classified as one with an IC50 of ≦50 nmol/L)
same,IC50,"SW480; Homo sapiens, SW480, 72 h",4.89 µM
same,Sensitivity Classes,SW480; SW480,R (“R” refers Resistant)
same,Sensitivity to BMS-754807,"SW480; SW480, preliminary panel of 45 CRC cell lines",Resistant (resistant cell lines had IC50 values of >50 nmol/L)
same,IC50,"SW403; Homo sapiens, SW-403, 72 h",34 nM
same,Sensitivity Classes,SW403; SW403,S (“S” refers Sensitive)
same,Sensitivity to BMS-754807,"SW403; SW403, preliminary panel of 45 CRC cell lines",Sensitive (a sensitive cell line was classified as one with an IC50 of ≦50 nmol/L)
same,Sensitivity Classes,DLD-1; DLD-1,R (“R” refers Resistant)
same,Sensitivity to BMS-754807,"DLD-1; DLD-1, preliminary panel of 45 CRC cell lines",Resistant (resistant cell lines had IC50 values of >50 nmol/L)
same,IC50,DLD-1; DLD-1,666 nM
same,IC50,"DLD-1; DLD-1, 72 h",666 nM
same,IC50,"SNU-C1; Homo sapiens, SNU-C1, 72 h",13 nM
same,Sensitivity Classes,SNU-C1; SNU-C1,S (“S” refers Sensitive)
same,Sensitivity to BMS-754807,"SNU-C1; SNUC1, preliminary panel of 45 CRC cell lines",Sensitive (a sensitive cell line was classified as one with an IC50 of ≦50 nmol/L)
same,Sensitivity Classes,CCD18CO; CCD18CO,R (“R” refers Resistant)
same,Sensitivity to BMS-754807,"CCD18CO; CCD18CO, preliminary panel of 45 CRC cell lines",Resistant (resistant cell lines had IC50 values of >50 nmol/L)
same,IC50,"CCD18CO; Homo sapiens, CCD-18Co, 72 h",2560 nM
same,Sensitivity Classes,COLO741; COLO741,R (“R” refers Resistant)
same,IC50,"COLO741; Homo sapiens, COLO-741, 72 h",1350 nM
same,average plasma concentration at steady state,[1],> 50 nmol/L
